The text below walks through data of US20250127784A1, “Treatment of Telangiectasia” (IMPERIAL COLLEGE INNOVATIONS LIMITED, priority 2022, published 2025).

For data set [1] the following is noted: dose of 2 mg/day; cited from earlier work.
Data set [2] has as its system pulmonary arteriovenous malformations (PAVMs) of the HHT patient. The data set can be described thus: Blinded thoracic CT scan comparison of pulmonary AVMs before and after trametinib. The format is in vivo, human. The conditions noted are these: for effect on pulmonary AVMs (CT scans): 1 month before versus after 10 months of trametinib treatment; for size of venous sac #7: 13 mm at T−2 ys, 15 mm at T−1M. The procedure: Thoracic CT scan images taken for clinical purposes were compared before Trametinib (−10 years (T−10 yrs), −2 years (T−2ys), −1 month (T−1M)), and after Trametinib for 4 months (T+4M), 10 months (T+10M) and 18 months (T+18M, data not shown).
Blinded analysis of the CT scans was conducted by an expert Imperial Thoracic Radiologist to address the question of “whether the PAVMs have stayed the same, got better, or got worse?”

Data set [3] concerns HHT-associated haemorrhage (nosebleeds) and anaemia in ENG+/− HHT patient. The data set can be described thus: Clinical case: HHT patient treated with trametinib, nosebleeds and transfusion-dependent anaemia. The conditions noted are these: for nosebleed frequency grade/category for HHT patients (Shovlin 2010, N=202): pre: highest category.
The subject of data set [4] is MAP3K1 transcripts in BOECs. The data set can be described thus: RNASeq of blood outgrowth endothelial cells (BOECs) treated by BMP9: MAP3K1. Particulars: all BOECs (N=16), treated by BMP9 for 1 hour versus untreated. The data set is classed as cell-based, human. The procedure:
FIG. 8: MAP3K1 RNASeq data in HHT and control endothelial cells from 16 cultures of blood outgrowth endothelial cells (BOECs: 4 controls, and 12 from the HHT genotypes ACVRL1^+/−, ENG^+/− and SMAD4^+/−). Data were RBM45-normalised. A Untreated BOECs (N=8). B All BOECs (N=16), untreated (unRx), and treated (Rx) by BMP9 for 1 hour. Bars: mean and standard deviation; circles: individual cultures.
To test this hypothesis, further RNASeq analysis of blood outgrowth endothelial cells (BOECs) from HHT patients was carried out. It has previously been shown that the Shovlin group established BOECs from controls and patients of all 3 HHT genotypes (ENG^+/−, ACVRL1^+/− and SMAD4^+/−); extracted RNA from replicate cultures; and developed novel methodologies to interpret primary alignment data generated by sequencing alignments to Homo sapiens human genome build 38 (GRCh38). […]
To test this hypothesis, further RNAseq analysis of blood outgrowth endothelial cells (BOECs) from HHT patients was carried out, and the relative expression levels of TGFβ/BMP9 signalling inhibitors was investigated. […] RNA had been extracted from replicate cultures; sequenced and aligned to Homo sapiens human genome build 38 (GRCh38), and unique gene reads normalised to total alignment counts per library initially further normalised using the Shovlin-group validated, lowest Gini Coefficient (GC) housekeeper gene RBM45 […]

Data set [5] deals with MEK1/2 transcript levels in control and ENG+/− BOECs. The data set can be described thus: RNASeq of blood outgrowth endothelial cells (BOECs) treated by BMP9: MEK1/2. The conditions noted are these: treated by BMP9 for 1 hour versus untreated, RBM45-normalised. The data set is classed as cell-based, human. The procedure:
FIG. 9: RNASeq data in HHT and control endothelial cells for MAP2K1 encoding MEK1 from 16 cultures of blood outgrowth endothelial cells (BOECs: 4 controls, and 12 from the HHT genotypes ACVRL1^+/−, ENG^+/− and SMAD4^+/−). Data were RBM45-normalised which normalises for PTC-induced stress. A All BOECs, B Control and ENG BOECs; C Control and ENG BOECs untreated (unRx) and treated (Rx) by BMP9 for 1 hour. Bars: mean and standard deviation; circles: individual cultures.
FIG. 10: RNASeq data in HHT and control endothelial cells for MAP2K2 encoding MEK2 from 16 cultures of blood outgrowth endothelial cells (BOECs: 4 controls, and 12 from the HHT genotypes ACVRL1^+/−, ENG^+/− and SMAD4^+/−). Data were RBM45-normalised which normalises for PTC-induced stress. A All BOECs, B Control and ENG BOECs; C Control and ENG BOECs untreated (unRx) and treated (Rx) by BMP9 for 1 hour. Bars: mean and standard deviation; circles: individual cultures.
RNAseq was carried out on BOECs from HHT patients and healthy controls to investigate MEK1/MEK2 transcription levels, using RBM45 normalisation to normalise for PTC-related stress.

Entries after “also recorded” stand apart in the source; their conditions may differ.

As to `CC(=O)Nc1cccc(-n2c(=O)n(C3CC3)c(=O)c3c(Nc4ccc(I)cc4F)n(C)c(=O)c(C)c32)c1` [trametinib, N-(3-{3-Cyclopropyl-5-[(2-fluoro-4-iodophenyl)amino]-6,8-dimethyl-2,4,7-trioxo-3,4,6,7-tetrahydropyrido[4,3-d]pyrimidin-1(2H)-yl}phenyl)acetamide], in data set [1], the elimination half-life was 93.6 to 115 h. In addition, the “effect on pulmonary AVMs (CT scans)” value is recorded as “has no effect on the patient's AVMs; also recorded: pulmonary AVMs did not improve” in data set [2] and “No pulmonary AVMs improved; also recorded: had no effect on the PAVMs; also recorded: within the error of CT, but with a probable slight increase in size” in data set [2] (listed as Trametinib). Besides, the “size of venous sac #7” value in data set [2] (T+4M (trametinib for 4 months)) is 16 mm; in data set [2] (T+10M (trametinib for 10 months)), 16.6 mm. Moreover, the “number of the 11 main pulmonary AVMs possibly slightly larger” value in data set [2] (scans 1 month before trametinib and 11 months later, after 10 months of treatment) turned out to be 4. For the same molecule, the “overall effect on HHT telangiectasia, nosebleeds (haemorrhage) and anaemia” value in data set [3] (ENG+/− HHT patient, trametinib treatment) was “treats telangiectasia, and particularly anaemia and haemorrhage associated with telangiectasia in HHT; also recorded: clinically important improvement in nosebleeds and anaemia; also recorded: elicited an improvement in HHT-associated haemorrhage (nosebleeds) and anaemia”. In addition, the “maximum nose bleed frequency, two most severe categories (daily or weekly)” value in data set [3] (after 10 months of trametinib treatment) is listed as “no longer fitted into either of these categories”. Besides, the “haemorrhage adjusted iron requirement (HAIR) grouping (Finnamore 2013, N=50)” value in data set [3] (after 10 months of trametinib, pre: 4th highest grouping) was “lowest grouping”. Moreover, the “nosebleed frequency grade/category for HHT patients (Shovlin 2010, N=202)” value in data set [3] (after 10 months of trametinib) is recorded as 3rd lowest frequency grade; in data set [3] (after 10 months of trametinib, listed as Trametinib) it was “third lowest category”. In data set [3] (after 10 months of trametinib, pre: highest quintile), the “haemorrhage adjusted iron requirement (HAIR) quintile (Finnamore 2013, N=50)” value was “lowest quintile”. Further, in data set [3] (after 10 months trametinib treatment), the intensity of nosebleeds entry is recorded as “brief trickles”. Also, the nosebleed frequency result in data set [3] (after 10 months trametinib treatment, before: several times per week to multiple times per day) is on record as “no more than once per month”. The “blood (red cell) transfusion requirement for anaemia” value in data set [3] (after 10 months trametinib treatment, previously every 3 weeks) is reported as “transfusions were not required even at extended assessment times”. Besides, in data set [3] (after 10 months trametinib treatment, previously transfusions every 3 weeks), the transfusion assessment interval is reported as 8 weekly. For the same molecule, the “nosebleeds (frequency and intensity), maintained frequency” value in data set [3] (at 18 and 24 months of trametinib treatment) is on record as “approximately one a year”. Moreover, in data set [3] (at 18 and 24 months of trametinib treatment (not shown)), the “haemorrhage adjusted iron requirement (HAIR)” value is listed as “reduced”. Further, in data set [3] (standard chemotherapeutic regimen, HHT patient with cancer), the “side effects, adverse event grade (CTCAE version 5.0)” value was “Grade 1”.

B1: BMP9: bone morphogenetic protein 9 (aka growth and differentiation factor 2, GDF2); causal ligand for HHT, used to treat BOECs for 1 hour (protein, UniProt Q9UK05 320-429, looked up)
Growth/differentiation factor …: SAGAGSHCQKTSLRVNFEDIGWDSWIIAPKEYEAYECKGGCFFPLADDVTPTKHAIVQTLVHLKFPTKVGKACCVPTKLSPISVLYKDDMGVPTLKYHYEGMSVAECGCR
Regarding B1, in data set [4], the “MAP3K1 transcripts (RNASeq)” value is “significantly increased”. Besides, the “MEK1/2 transcript levels (RNASeq)” value in data set [5] is on record as “no effect”.
